Measurements as given in the supplement of paper PMC10883282.
± gives the standard deviation of the averaged measurements.

Test system: SK-ES-1
Experiment: relative viability vs DMSO control (72 h) (fraction); higher = more viable cells
In short: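 Sarcoma cell lines went into 384-well plates at densities chosen to reach 80–90% confluence. After 24 h, each well received 2.5 µl of serially diluted compound, with source plates running from 10 mM to 0.0002 mM, and the plates were kept 72 h at 37 °C, 5% CO2, alongside 0.1% DMSO vehicle and a 5 µM positive control. Relative viability was derived from ATPLite readings as percent growth and averaged over up to triplicate wells. The data were then rescaled so that 1 stands for full and 0 for none.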

Row | Compound | relative viability (0.00017 µM) | relative viability (0.00051 µM) | relative viability (0.00152 µM) | relative viability (0.00457 µM) | relative viability (0.01372 µM) | relative viability (0.04115 µM) | relative viability (0.1235 µM) | relative viability (0.3704 µM) | relative viability (1.111 µM) | relative viability (3.333 µM) | relative viability (10 µM)
1 | Cc1cc(C)c(/C=C2\C(=O)Nc3ccccc32)[nH]1 [Semaxanib] | 0.972 ± 0.06 | 1.01 ± 0.056 | 0.954 ± 0.028 | 1 ± 0.056 | 0.967 ± 0.055 | 0.999 ± 0.018 | 1 ± 0.027 | 0.986 ± 0.09 | 0.925 ± 0.042 | 0.934 ± 0.052 | 0.765 ± 0.068
2 | O=C(Nc1cnn2ccc(N3CCC[C@@H]3c3cc(F)ccc3F)nc12)N1CC[C@H](O)C1 [Larotrectinib] | 1.01 ± 0.018 | 1.04 ± 0.048 | 1.04 ± 0.026 | 1.04 ± 0.064 | 1.04 ± 0.038 | 1.03 ± 0.053 | 1 ± 0.02 | 1.02 ± 0.062 | 1 ± 0.03 | 0.969 ± 0.034 | 1.03 ± 0.058
3 | C=CC(=O)N1CCC[C@@H](n2nc(-c3ccc(Oc4ccccc4)cc3)c3c(N)ncnc32)C1 [Ibrutinib] | 1.008 ± 0.0073 | 1.02 ± 0.054 | 1.02 ± 0.026 | 1.02 ± 0.054 | 1 ± 0.085 | 1.04 ± 0.03 | 1 ± 0.011 | 1.06 ± 0.036 | 1.057 ± 0.0088 | 1.02 ± 0.021 | 0.743 ± 0.043
4 | CC(C)N1CCN(Cc2cnc(-c3cc(-c4cccc5[nH]ccc45)cc4[nH]ncc34)o2)CC1 [Nemiralisib] | 0.934 ± 0.039 | 0.915 ± 0.03 | 0.945 ± 0.034 | 0.932 ± 0.035 | 0.985 ± 0.068 | 0.957 ± 0.041 | 0.977 ± 0.026 | 0.961 ± 0.055 | 0.931 ± 0.04 | 0.76 ± 0.027 | 0.114 ± 0.053
5 | CN1CCN(c2ccc3nc(-c4c(N)c5c(F)cccc5[nH]c4=O)[nH]c3c2)CC1 [Dovitinib] | 1.02 ± 0.013 | 1.07 ± 0.037 | 1.044 ± 0.0086 | 1.03 ± 0.022 | 1.07 ± 0.015 | 0.963 ± 0.049 | 0.937 ± 0.039 | 0.676 ± 0.012 | 0.365 ± 0.0063 | 0.155 ± 0.017 | 0.0451 ± 0.0026
6 | COc1c(OCCCN2CCOCC2)ccc2c1N=C(NC(=O)c1cnc(N)nc1)N1CCN=C21 [Copanlisib] | 1.02 ± 0.022 | 1.07 ± 0.036 | 1.01 ± 0.021 | 0.808 ± 0.019 | 0.629 ± 0.015 | 0.4325 ± 0.0023 | 0.3049 ± 0.0025 | 0.214 ± 0.016 | 0.15 ± 0.0035 | 0.0822 ± 0.0034 | 0.0455 ± 0.0028
7 | CNC(=O)c1ccc(-c2cnc3ncc(Cc4ccc5ncccc5c4)n3n2)cc1F [Capmatinib] | 1.06 ± 0.011 | 1.05 ± 0.022 | 1.11 ± 0.023 | 1.08 ± 0.04 | 1.06 ± 0.021 | 1.09 ± 0.015 | 1.09 ± 0.048 | 1.08 ± 0.049 | 1.12 ± 0.03 | 1.08 ± 0.026 | 1.07 ± 0.026
8 | Cn1cc(-c2cc3c(N4CCN(c5ncc([C@@](C)(N)c6ccc(F)cc6)cn5)CC4)ncnn3c2)cn1 [Avapritinib] | 0.98 ± 0.026 | 0.981 ± 0.045 | 0.941 ± 0.011 | 1 ± 0.018 | 0.989 ± 0.05 | 0.96 ± 0.042 | 0.948 ± 0.027 | 0.975 ± 0.036 | 0.906 ± 0.018 | 0.778 ± 0.071 | 0.579 ± 0.022
9 | CCCS(=O)(=O)Nc1ccc(F)c(C(=O)c2c[nH]c3ncc(-c4ccc(Cl)cc4)cc23)c1F [Vemurafenib] | 1.02 ± 0.061 | 1.06 ± 0.043 | 1.08 ± 0.016 | 1.09 ± 0.022 | 1.06 ± 0.043 | 1.03 ± 0.045 | 1.05 ± 0.025 | 1.1 ± 0.011 | 1.04 ± 0.06 | 0.891 ± 0.078 | 0.534 ± 0.16
10 | CC1(C)CNc2cc(NC(=O)c3cccnc3NCc3ccncc3)ccc21 [Motesanib] | 0.942 ± 0.053 | 0.899 ± 0.059 | 0.952 ± 0.013 | 0.891 ± 0.017 | 0.9075 ± 0.0058 | 0.938 ± 0.056 | 0.974 ± 0.051 | 0.913 ± 0.043 | 0.954 ± 0.044 | 0.924 ± 0.053 | 0.753 ± 0.038
11 | C=CC(=O)Nc1cccc(Oc2nc(Nc3ccc(N4CCN(C)CC4)cc3)nc3ccsc23)c1 [Olmutinib] | 0.979 ± 0.049 | 1.029 ± 0.0089 | 0.999 ± 0.047 | 1.03 ± 0.028 | 1.03 ± 0.036 | 1.018 ± 0.0064 | 1.05 ± 0.022 | 1.05 ± 0.051 | 0.996 ± 0.059 | 0.921 ± 0.011 | 0.339 ± 0.041
12 | COc1cc2nccc(Oc3ccc(NC(=O)Nc4cc(C)on4)c(Cl)c3)c2cc1OC [Tivozanib] | 1.02 ± 0.058 | 1.02 ± 0.019 | 1.03 ± 0.065 | 1.04 ± 0.028 | 1.11 ± 0.021 | 1.07 ± 0.021 | 1.08 ± 0.06 | 1.08 ± 0.023 | 1.06 ± 0.041 | 0.973 ± 0.035 | 0.518 ± 0.018
13 | CNC(=O)c1cc(Oc2ccc(NC(=O)Nc3ccc(Cl)c(C(F)(F)F)c3)c(F)c2)ccn1 [Regorafenib] | 1.11 ± 0.054 | 1.03 ± 0.027 | 1.08 ± 0.032 | 1.04 ± 0.017 | 1.02 ± 0.085 | 1.03 ± 0.014 | 1.09 ± 0.036 | 1.05 ± 0.047 | 0.952 ± 0.05 | 0.836 ± 0.017 | 0.523 ± 0.021
14 | Cc1ccc(F)c(NC(=O)Nc2ccc(-c3cccc4[nH]nc(N)c34)cc2)c1 [Linifanib] | 1.07 ± 0.098 | 1.07 ± 0.044 | 1.08 ± 0.043 | 1.11 ± 0.025 | 1.09 ± 0.052 | 1.04 ± 0.028 | 1.04 ± 0.038 | 1.05 ± 0.039 | 1.01 ± 0.032 | 0.879 ± 0.17 | 1.03 ± 0.034
15 | Cc1cnc(Nc2ccc(OCCN3CCCC3)cc2)nc1Nc1cccc(S(=O)(=O)NC(C)(C)C)c1 [Fedratinib] | 0.99 ± 0.063 | 1.03 ± 0.045 | 1.047 ± 0.01 | 1.06 ± 0.028 | 1.04 ± 0.016 | 1.03 ± 0.023 | 0.859 ± 0.067 | 0.489 ± 0.014 | 0.123 ± 0.01 | 0.0173 ± 0.002 | 0.0056 ± 0.00035
16 | C=CC(=O)N1CCC([C@@H]2CCNc3c(C(N)=O)c(-c4ccc(Oc5ccccc5)cc4)nn32)CC1 [Zanubrutinib] | 0.906 ± 0.065 | 0.938 ± 0.088 | 0.994 ± 0.05 | 0.984 ± 0.083 | 0.949 ± 0.043 | 0.953 ± 0.029 | 0.934 ± 0.041 | 0.953 ± 0.057 | 0.894 ± 0.069 | 0.903 ± 0.031 | 0.845 ± 0.038
17 | CN1CCC(COc2cnc(-c3cccc(Cn4nc(-c5cccc(C#N)c5)ccc4=O)c3)nc2)CC1 [Tepotinib] | 0.997 ± 0.018 | 1.08 ± 0.037 | 1.06 ± 0.026 | 1.06 ± 0.023 | 1.02 ± 0.018 | 1.06 ± 0.028 | 1.003 ± 0.0064 | 1 ± 0.037 | 0.974 ± 0.045 | 0.98 ± 0.038 | 0.718 ± 0.031
18 | Cc1nc(NC(=O)N2CCC[C@H]2C(N)=O)sc1-c1ccnc(C(C)(C)C(F)(F)F)c1 [Alpelisib] | 1.02 ± 0.032 | 1 ± 0.047 | 1.01 ± 0.039 | 1.01 ± 0.054 | 0.995 ± 0.057 | 0.931 ± 0.033 | 0.888 ± 0.052 | 0.675 ± 0.057 | 0.558 ± 0.0047 | 0.425 ± 0.024 | 0.289 ± 0.02
